Laboratory results published in patent US20090143279A1 (priority 2007, published 2009).
Like-named read-outs stand apart in the source and are kept apart here.

Experiments:
OXPHOS gene expression = assay type: cell-based, mouse
[1] = system: mitochondrial membrane potential; assay type: cell-based, mouse
cytochrome c = assay type: cell-based, mouse
reactive oxygen species = assay type: cell-based, mouse
mtOXPHOS transcripts = assay type: cell-based, mouse
nuOXPHOS transcripts = assay type: cell-based, mouse
[2] = system: cellular dehydrogenase activity
[3] = 20 μM, composite Z-score vs DMSO
[4] = normalized composite Z-score vs mock-treated (DMSO) wells, Conc 20 μM
[5] = composite Z-score vs DMSO wells, Conc 20 μM
[6] = Conc 20 μM, normalized score vs mock-treated (DMSO) wells
[7] = composite Z-score vs DMSO, Conc 20 μM
[8] = 18.5 μM, composite Z-score vs DMSO

OC(c1cc(C(F)(F)F)nc2c(C(F)(F)F)cccc12)C1CCCCN1 (stereo not shown) [mefloquine]
GE-HTS (OXPHOS gene expression): −0.036
GE-HTS (OXPHOS gene expression; [3]): 0.362
ΔΨm [1]: −0.537
ΔΨm [1, 3]: −0.505
cyt c (cytochrome c): 0.498
cyt c (cytochrome c; [3]): −1.496
Viability (C2C12 myotubes): −0.183
Viability (C2C12 myotubes; [3]): 1.135
ROS (reactive oxygen species): −0.069
ROS (reactive oxygen species; [3]): −0.983
mitoOX (mtOXPHOS transcripts): 0.007
mitoOX (mtOXPHOS transcripts; [3]): −0.093
nucOX (nuOXPHOS transcripts): −0.073
nucOX (nuOXPHOS transcripts; [3]): 0.552
MTT [2]: −1.368
MTT [2, 3]: 0.374

OC[C@H]1O[C@@](CO)(O[C@H]2O[C@H](CO)[C@@H](O)[C@H](O)[C@H]2O)[C@@H](O[C@H]2O[C@H](CO)[C@@H](O)[C@H](O)[C@H]2O)[C@@H]1O [melezitose]
GE-HTS (OXPHOS gene expression; [4]): −0.502
ΔΨm [1, 4]: −0.605
cyt c (cytochrome c; [4]): 0.284
Viability (C2C12 myotubes; [4]): −0.843
ROS (reactive oxygen species; [4]): −0.125
mitoOX (mtOXPHOS transcripts; [4]): −1.553
nucOX (nuOXPHOS transcripts; [4]): 0.054
MTT [2, 4]: −0.968

N[C@@H](Cc1ccc(N(CCCl)CCCl)cc1)C(=O)O [melphalan]
GE-HTS (OXPHOS gene expression; [5]): 1.449
ΔΨm [1, 5]: 0.151
cyt c (cytochrome c; [5]): −0.954
Viability (C2C12 myotubes; [5]): −0.360
ROS (reactive oxygen species; [5]): −0.265
mitoOX (mtOXPHOS transcripts; [5]): 1.453
nucOX (nuOXPHOS transcripts; [5]): 1.282
MTT [2, 5]: −1.387

CC1CCC(C(C)C)C(OC(=O)c2ccccc2)C1 (stereo not shown) [menthyl benzoate]
GE-HTS (composite Z-score) (OXPHOS gene expression; [6]): −0.115
ΔΨm (composite Z-score) [1, 6]: 0.016
cyt c (composite Z-score) (cytochrome c; [6]): −0.724
Viability (composite Z-score) (C2C12 myotubes; [6]): −0.151
ROS (composite Z-score) (reactive oxygen species; [6]): 1.375
mitoOX (composite Z-score) (mtOXPHOS transcripts; [6]): −0.336
nucOX (composite Z-score) (nuOXPHOS transcripts; [6]): 0.047
MTT (composite Z-score) [2, 6]: −1.026

C[N+]1(C)CCCC(OC(=O)C(O)(c2ccccc2)c2ccccc2)C1 (stereo not shown) [mepenzolate]
GE-HTS (OXPHOS gene expression; [5]): −0.025
ΔΨm [1, 5]: 1.198
cyt c (cytochrome c): 0.666
cyt c (cytochrome c; [5]): 0.855
Viability (C2C12 myotubes; [5]): 0.333
ROS (reactive oxygen species; [5]): 0.368
mitoOX (mtOXPHOS transcripts; [5]): −0.129
nucOX (nuOXPHOS transcripts; [5]): 0.062
MTT [2, 5]: −0.894

NCCS [mercaptamine]
GE-HTS (OXPHOS gene expression): −1.175
ΔΨm [1]: −0.724
cyt c (cytochrome c): 0.320
Viability (C2C12 myotubes): −0.271
ROS (reactive oxygen species): −0.661
mitoOX (mtOXPHOS transcripts): −1.294
nucOX (nuOXPHOS transcripts): −0.980
MTT [2]: −0.085

CC1=C2C(O)C(=O)OC3CC4C(C)(C)C(=O)C=C[C@]4(C)C(CC1)[C@]23C (stereo partly shown) [merogedunin]
GE-HTS (OXPHOS gene expression; [4]): −0.254
ΔΨm [1, 4]: −0.214
cyt c (cytochrome c; [4]): 0.490
Viability (C2C12 myotubes; [4]): −0.222
ROS (reactive oxygen species; [4]): 0.741
mitoOX (mtOXPHOS transcripts; [4]): −0.350
nucOX (nuOXPHOS transcripts; [4]): −0.160
MTT [2, 4]: −0.645

CC(C)NCC(O)c1cc(O)cc(O)c1 (stereo not shown) [metaproterenol]
GE-HTS (OXPHOS gene expression; [5]): 0.086
ΔΨm [1, 5]: −1.005
cyt c (cytochrome c): 0.339
cyt c (cytochrome c; [5]): 0.212
Viability (C2C12 myotubes; [5]): 0.206
ROS (reactive oxygen species; [5]): 2.154
mitoOX (mtOXPHOS transcripts; [5]): −0.094
nucOX (nuOXPHOS transcripts; [5]): 0.138
MTT [2, 5]: −0.832

C[C@H](N)[C@H](O)c1cccc(O)c1 [metaraminol]
GE-HTS (OXPHOS gene expression; [7]): −0.589
ΔΨm [1, 7]: −0.772
cyt c (cytochrome c; [7]): 0.327
Viability (C2C12 myotubes; [7]): 0.107
ROS (reactive oxygen species; [7]): 0.313
mitoOX (mtOXPHOS transcripts; [7]): −0.745
nucOX (nuOXPHOS transcripts; [7]): −0.456
MTT [2, 7]: −1.268

C=C1c2cccc(O)c2C(=O)C2=C(O)[C@]3(O)C(=O)C(C(N)=O)=C(O)[C@@H](N(C)C)[C@@H]3[C@@H](O)[C@H]12 [methacycline, reference compound]
GE-HTS (OXPHOS gene expression; [5]): −0.340
ΔΨm [1, 5]: −1.616
cyt c (cytochrome c): 0.020
cyt c (cytochrome c; [5]): 0.723
Viability (C2C12 myotubes; [5]): −1.645
ROS (reactive oxygen species; [5]): 1.083
mitoOX (mtOXPHOS transcripts; [5]): 0.258
nucOX (nuOXPHOS transcripts; [5]): −0.600
MTT [2, 5]: −1.744

CNC(=O)ON=C(C)SC [methomyl]
GE-HTS (OXPHOS gene expression; [7]): −0.703
ΔΨm [1, 7]: −0.493
cyt c (cytochrome c; [7]): −0.007
Viability (C2C12 myotubes; [7]): 1.361
ROS (reactive oxygen species; [7]): 0.231
mitoOX (mtOXPHOS transcripts; [7]): −0.317
nucOX (nuOXPHOS transcripts; [7]): −0.805
MTT [2, 7]: −1.481

COc1c2occc2cc2ccc(=O)oc12 [methoxsalen]
GE-HTS (OXPHOS gene expression; [3]): −0.562
ΔΨm [1, 3]: −0.034
cyt c (cytochrome c; [3]): −0.889
Viability (C2C12 myotubes; [3]): 0.416
ROS (reactive oxygen species; [3]): 0.310
mitoOX (mtOXPHOS transcripts; [3]): −0.489
nucOX (nuOXPHOS transcripts; [3]): −0.513
MTT [2, 3]: −0.976

COc1c2occc2cc2ccc(=O)oc12 [methoxy-8-psoralen]
GE-HTS (OXPHOS gene expression; [8]): 0.803
ΔΨm [1, 8]: 0.605
cyt c (cytochrome c; [8]): 0.227
Viability (C2C12 myotubes; [8]): 1.463
ROS (reactive oxygen species; [8]): 0.103
mitoOX (mtOXPHOS transcripts; [8]): 0.340
nucOX (nuOXPHOS transcripts; [8]): 0.952
MTT [2, 8]: −0.371
